Experimental data from patent publication US10590106B2, “Certain chemical entities, compositions, and methods” (NeuPharma, Inc., priority 2012, dated 2020).

Tests used:
[1] = target: KDR (VEGFR2) (Homo sapiens (Human), UniProt P35968); test: Inhibitory activity against kinase KDR, Z'-LYTE method (Invitrogen); format: biochemical; conditions: for inhibition at 1 µM: 1 μM compound, read-out: Inhibition (% inhibition at 1 μM) against KDR
Description: Inhibitory activities of compounds against KDR (VEGFR2) were also measured by Invitrogen using Z′-LYTE® Method as described above with the following modification. The 2× KDR (VEGFR2)/Tyr 01 mixture is prepared in 50 mM HEPES pH 7.5, 0.01% BRIJ-35, 10 mM MgCl2, 1 mM EGTA. The final 10 μL Kinase Reaction consists of 0.5-11.7 ng KDR (VEGFR2) and 2 μM Tyr 01 in 50 mM HEPES pH 7.5, 0.01% BRIJ-35, 10 mM MgCl2, 1 mM EGTA. After the 1 hour Kinase Reaction incubation, 5 μL of a 1:256 dilution of Development Reagent B is added.
The scale utilized in Table 5 is as follows: +++ less than 100 nM; and ++ greater than 100 nM

[2] = tested on: A375 cells; test: Inhibition of cancer cell growth, MTT or MTS assay, A375; format: cell-based; conditions: Homo sapiens, A-375; 72 h incubation
Description: (§1) Inhibition of cell growth by compounds was measured using MTT or MTS assay. Tumor cell lines were purchased from ATCC (American Type Culture Collection, Manassas, Va.). All cell lines were maintained in RPMI 1640 (Hyclone) supplemented with 10% fetal bovine serum (FBS, Hyclone), glutamine (2 mM, Hyclone), and antibiotics (penicillin 100 U/mL and streptomycin 50 μg/mL) at 37° C. in a humidified atmosphere of 5% CO2 in air. Taxol (as a positive control, Sigma) and compounds were dissolved in DMSO (Sigma), and the final concentration of DMSO in the medium was 1%. Tumor cells were plated in 96-well plates at densities of about 2000 (A375) or 4000 (A549 and Colo205) cells/well of a 96-well plate and allowed to adhere/grow for 24 h. They were then treated with various concentrations of drug and incubated for 72 h. For MTT method, medium was then removed by inverting and tapping the plates. 100 μL of MTT (0.5 mg/ml) was added to each well followed by an incubated at 37° C. for 4 h. MTT was then removed and 200 μL of DMSO was added to each well, and the ODs at 570 nm were measured after a 5 second shaking cycle in a 96-well spectrophotometer. For MTS method, 20 μL MTS (CellTiter 96 Aqueous One Solution, Promega) was added to each well followed by an incubated at 37° C. for 2-4 h, solutions were then directly put in a 96-well spectrophotometer, and the ODs at 490 nm were measured.
(§2) All concentrations of compounds were tested in triplicate and controls were averaged over 4 wells. IC50 was calculated by plotting the concentration of compound vs the percentage of inhibition in treated wells using GraphPad Prism 5. […] The scale utilized in Tables […] is as follows: +++ less than 1000 nM; ++ between 1000 nM and 5000 nM; and + greater than 5000 nM. The scale utilized in Table 8 is as follows: +++ less than 2000 nM; ++ between 2000 nM and 5000 nM; and + greater than 5000 nM.

[3] = target: BRAF V600E (Homo sapiens (Human), UniProt P15056, V600E); test: Inhibitory activity against kinase BRAF V600E, Z'-LYTE method (Invitrogen); format: biochemical; conditions: for inhibition at 1 µM: 1 μM compound, read-out: Inhibition (% inhibition at 1 μM) against BRAF V600E
Description: Inhibitory activities Inhibitory activities of compounds against BRAF, and BRAF V600E were measured by Invitrogen using Z′-LYTE® Method as briefly described in the following. 4× Test compounds are dissolved in 1% DMSO. […] ATP solutions are diluted to a 4×ATP working concentration in Kinase Buffer (50 mM HEPES pH 7.5, 0.01% BRIJ-35, 10 mM MgCl2, 1 mM EGTA). Reaction started by 30-second shaking of mixture consisting of 2.5 μL 4× test compound, […] and 2.5 μL 4×ATP Solution on Bar-coded Corning, low volume NBS, black 384-well plate (Corning Cat. #3676). Then the mixture was incubated for 60-minute at room temperature for the kinase reaction, followed by addition of 5 μL of a 1:1024 dilution of development reagent A and 30-second plate shake. The mixture was then incubated for another 60-minute at room temperature for development reaction. Fluorescence was read by plate reader. IC50 was calculated by plotting the concentration of compound vs the percentage of inhibition in treated wells using GraphPad Prism 5.
Table 2 and 3 show % inhibition at 1 μM of several compounds of the invention against BRAF and BRAF V600E, respectively, using Z′-LYTE® method.
The scale utilized in Table 4 is as follows: +++ less than 100 nM; and ++ greater than 100 nM.

[4] = tested on: A549 cells; test: Inhibition of cancer cell growth, MTT or MTS assay, A549; format: cell-based; conditions: Homo sapiens, 72 h incubation
Description: as §1, §2

Sequence of BRAF V600E (P15056 whole entry V600E): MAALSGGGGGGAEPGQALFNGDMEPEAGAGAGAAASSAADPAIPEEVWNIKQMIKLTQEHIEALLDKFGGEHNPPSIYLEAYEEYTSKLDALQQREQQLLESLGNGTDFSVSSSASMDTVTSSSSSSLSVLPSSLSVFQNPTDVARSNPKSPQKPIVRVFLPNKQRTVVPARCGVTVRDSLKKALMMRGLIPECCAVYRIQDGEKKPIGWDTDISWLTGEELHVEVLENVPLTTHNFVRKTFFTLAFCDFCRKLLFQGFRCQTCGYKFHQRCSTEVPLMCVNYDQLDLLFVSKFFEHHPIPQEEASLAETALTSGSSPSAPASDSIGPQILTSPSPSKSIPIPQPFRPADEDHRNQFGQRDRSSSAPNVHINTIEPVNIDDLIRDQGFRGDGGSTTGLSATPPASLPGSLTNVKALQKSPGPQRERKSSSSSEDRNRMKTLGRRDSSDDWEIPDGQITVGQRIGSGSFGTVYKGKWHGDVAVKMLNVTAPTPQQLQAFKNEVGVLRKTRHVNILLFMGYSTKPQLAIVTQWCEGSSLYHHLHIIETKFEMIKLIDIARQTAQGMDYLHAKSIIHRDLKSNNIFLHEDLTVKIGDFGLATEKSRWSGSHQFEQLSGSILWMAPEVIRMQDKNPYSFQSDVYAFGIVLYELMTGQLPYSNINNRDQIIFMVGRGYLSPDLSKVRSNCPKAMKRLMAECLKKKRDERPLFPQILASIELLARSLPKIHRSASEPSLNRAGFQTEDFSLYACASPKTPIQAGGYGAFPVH
Sequence of KDR (VEGFR2) (P35968 20-1356): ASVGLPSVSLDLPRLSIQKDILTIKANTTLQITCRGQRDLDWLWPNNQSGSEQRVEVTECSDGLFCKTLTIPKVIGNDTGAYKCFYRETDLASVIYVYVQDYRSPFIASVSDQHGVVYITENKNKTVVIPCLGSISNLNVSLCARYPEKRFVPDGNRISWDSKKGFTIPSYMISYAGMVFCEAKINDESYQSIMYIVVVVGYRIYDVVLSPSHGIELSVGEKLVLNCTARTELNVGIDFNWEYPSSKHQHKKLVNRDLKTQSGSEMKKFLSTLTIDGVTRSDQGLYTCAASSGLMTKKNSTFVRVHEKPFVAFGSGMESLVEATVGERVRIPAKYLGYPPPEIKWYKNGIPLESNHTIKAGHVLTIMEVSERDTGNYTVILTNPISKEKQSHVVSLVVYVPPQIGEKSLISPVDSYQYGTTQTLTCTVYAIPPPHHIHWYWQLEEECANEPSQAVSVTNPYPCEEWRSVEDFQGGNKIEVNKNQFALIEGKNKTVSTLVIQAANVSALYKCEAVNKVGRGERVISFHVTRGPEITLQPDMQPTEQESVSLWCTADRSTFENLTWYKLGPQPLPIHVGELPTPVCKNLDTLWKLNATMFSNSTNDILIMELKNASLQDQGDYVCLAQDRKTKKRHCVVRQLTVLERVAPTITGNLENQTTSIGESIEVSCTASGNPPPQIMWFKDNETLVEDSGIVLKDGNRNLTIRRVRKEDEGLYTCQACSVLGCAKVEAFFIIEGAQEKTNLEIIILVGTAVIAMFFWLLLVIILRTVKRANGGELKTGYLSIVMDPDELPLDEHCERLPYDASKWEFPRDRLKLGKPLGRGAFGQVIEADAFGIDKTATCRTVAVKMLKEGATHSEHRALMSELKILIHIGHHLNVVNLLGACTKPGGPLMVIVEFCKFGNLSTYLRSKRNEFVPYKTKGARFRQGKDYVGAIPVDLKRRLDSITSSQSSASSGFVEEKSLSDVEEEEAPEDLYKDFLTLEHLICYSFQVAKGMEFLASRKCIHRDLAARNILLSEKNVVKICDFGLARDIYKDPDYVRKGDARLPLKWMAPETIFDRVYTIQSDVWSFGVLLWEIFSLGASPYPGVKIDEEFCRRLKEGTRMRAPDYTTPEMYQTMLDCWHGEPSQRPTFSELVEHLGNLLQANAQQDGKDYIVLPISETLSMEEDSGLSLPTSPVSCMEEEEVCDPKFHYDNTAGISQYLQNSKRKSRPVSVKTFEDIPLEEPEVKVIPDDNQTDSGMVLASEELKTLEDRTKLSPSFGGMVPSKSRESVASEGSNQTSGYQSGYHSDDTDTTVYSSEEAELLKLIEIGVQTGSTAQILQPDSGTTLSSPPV

| SMILES | inhibition at 1 µM [1] | IC50 [2] | inhibition at 1 µM [3] | IC50 [4] | IC50 [1] | IC50 [3] |
| --- | --- | --- | --- | --- | --- | --- |
| O=C(Nc1cccc(Oc2ccc3nccnc3c2)c1)c1cccc(F)c1 [Compound C004, 3-fluoro-N-(3-(quinoxalin-6-yloxy)phenyl)benzamide] | < 70% | > 5 µM | 70 to 89% | – | – | – |
| CCCS(=O)(=O)Nc1cccc(Oc2ccc3nccnc3c2)c1 [Compound C007, N-(3-(quinoxalin-6-yloxy)phenyl)propane-1-sulfonamide] | – | > 5 µM | – | > 5 µM | – | – |
| O=C(Nc1ccc(F)c(Oc2ccc3ncc(N4CCOCC4)nc3c2)c1)c1ccc(Cl)c(C(F)(F)F)c1 [Compound C008, 4-chloro-N-(4-fluoro-3-((3-morpholinoquinoxalin-6-yl)oxy)phenyl)-3-(trifluoromethyl)benzamide] | – | 1 to 5 µM | – | 2 to 5 µM | – | – |
| CCCS(=O)(=O)Nc1ccc(F)c(Oc2ccc3ncc(N4CCOCC4)nc3c2)c1 [Compound C012, N-(4-fluoro-3-((3-morpholinoquinoxalin-6-yl)oxy)phenyl)propane-1-sulfonamide] | – | > 5 µM | – | > 5 µM | – | – |
| O=C(Nc1ccc(F)c(Oc2ccc3nccnc3c2)c1)c1cccc(F)c1 [Compound C017, 3-fluoro-N-(4-fluoro-3-(quinoxalin-6-yloxy)phenyl)benzamide] | – | > 5 µM | 70 to 89% | – | – | – |
| CCCS(=O)(=O)Nc1cc(F)cc(Oc2ccc3nccnc3c2)c1 [Compound C019, N-(3-fluoro-5-(quinoxalin-6-yloxy)phenyl)propane-1-sulfonamide] | – | 1 to 5 µM | < 70% | – | – | – |
| CCCS(=O)(=O)Nc1cc(F)cc(Oc2ccc3ncc(N4CCOCC4)nc3c2)c1 [Compound C030, N-(3-fluoro-5-((3-morpholinoquinoxalin-6-yl)oxy)phenyl)propane-1-sulfonamide] | – | > 5 µM | – | – | – | – |
| O=C(Nc1cccc(F)c1)Nc1cccc(Oc2ccc3ncc(N4CCNCC4)nc3c2)c1 [Compound C037, 1-(3-fluorophenyl)-3-(3-((3-(piperazin-1-yl)quinoxalin-6-yl)oxy)phenyl)urea] | 70 to 89% | – | > 89% | > 5 µM | – | – |
| O=C(Nc1cccc(F)c1)Nc1cccc(Oc2ccc3ncc(N4CCOCC4)nc3c2)c1 [Compound C042, 1-(3-fluorophenyl)-3-(3-((3-morpholinoquinoxalin-6-yl)oxy)phenyl)urea] | 70 to 89% | – | > 89% | > 5 µM | – | – |
| O=C(Nc1cc(F)cc(F)c1)Nc1cccc(Oc2ccc3ncc(N4CCOCC4)nc3c2)c1 [Compound C045, 1-(3,5-difluorophenyl)-3-(3-((3-morpholinoquinoxalin-6-yl)oxy)phenyl)urea] | < 70% | – | 70 to 89% | > 5 µM | – | – |
| O=C(Nc1ccc(F)cc1)Nc1ccc(F)c(Oc2ccc3ncc(N4CCOCC4)nc3c2)c1 [Compound C053, 1-(4-fluoro-3-((3-morpholinoquinoxalin-6-yl)oxy)phenyl)-3-(4-fluorophenyl)urea] | 70 to 89% | 1 to 5 µM | > 89% | – | – | – |
| O=C(Nc1cccc(Cl)c1)Nc1ccc(F)c(Oc2ccc3ncc(N4CCOCC4)nc3c2)c1 [Compound C055, 1-(3-chlorophenyl)-3-(4-fluoro-3-((3-morpholinoquinoxalin-6-yl)oxy)phenyl)urea] | 70 to 89% | – | > 89% | > 5 µM | – | – |
| O=C(Nc1ccc(F)c(Cl)c1)Nc1ccc(F)c(Oc2ccc3ncc(N4CCOCC4)nc3c2)c1 [Compound C056, 1-(3-chloro-4-fluorophenyl)-3-(4-fluoro-3-((3-morpholinoquinoxalin-6-yl)oxy)phenyl)urea] | 70 to 89% | – | > 89% | > 5 µM | – | – |
| O=C(Nc1ccc(Cl)cc1)Nc1ccc(F)c(Oc2ccc3ncc(N4CCOCC4)nc3c2)c1 [Compound C057, 1-(4-chlorophenyl)-3-(4-fluoro-3-((3-morpholinoquinoxalin-6-yl)oxy)phenyl)urea] | 70 to 89% | – | > 89% | – | – | – |

Other lines, results leading:

| inhibition at 1 µM [1] | IC50 [2] | inhibition at 1 µM [3] | IC50 [4] | IC50 [1] | IC50 [3] | SMILES |
| --- | --- | --- | --- | --- | --- | --- |
| 70 to 89% | – | > 89% | 2 to 5 µM | – | – | O=C(Nc1ccc(Cl)c(F)c1)Nc1ccc(F)c(Oc2ccc3ncc(N4CCOCC4)nc3c2)c1 [Compound C058, 1-(4-chloro-3-fluorophenyl)-3-(4-fluoro-3-((3-morpholinoquinoxalin-6-yl)oxy)phenyl)urea] |
| – | – | – | – | < 100 nM | < 100 nM | COc1ccc(NC(=O)Nc2cccc(Oc3ccc4nccnc4c3)c2)cc1 [Compound C069, 1-(4-methoxyphenyl)-3-(3-(quinoxalin-6-yloxy)phenyl)urea] |
| < 70% | > 5 µM | < 70% | – | – | – | CCCNC(=O)Nc1cccc(Oc2ccc3nccnc3c2)c1 [Compound C071, 1-propyl-3-(3-(quinoxalin-6-yloxy)phenyl)urea] |
| – | > 5 µM | – | – | – | – | O=C(Nc1cccc(Oc2ccc3nccnc3c2)c1)NC1CC1 [Compound C072, 1-cyclopropyl-3-(3-(quinoxalin-6-yloxy)phenyl)urea] |
| – | > 5 µM | 70 to 89% | – | – | – | O=C(Nc1ccc(Oc2ccc3nccnc3c2)cc1)c1cccc(C(F)(F)F)c1 [Compound C078, N-(4-(quinoxalin-6-yloxy)phenyl)-3-(trifluoromethyl)benzamide] |
| 70 to 89% | > 5 µM | 70 to 89% | – | – | – | O=C(Nc1ccc(Oc2ccc3ncc(N4CCOCC4)nc3c2)cc1)Nc1ccc(C(F)(F)F)cc1 [Compound C083, 1-(4-((3-morpholinoquinoxalin-6-yl)oxy)phenyl)-3-(4-(trifluoromethyl)phenyl)urea] |
| – | – | 70 to 89% | – | – | – | O=C(Nc1ccc(Cl)cc1)Nc1ccc(Oc2ccc3ncc(N4CCOCC4)nc3c2)cc1 [Compound C085, 1-(4-chlorophenyl)-3-(4-((3-morpholinoquinoxalin-6-yl)oxy)phenyl)urea] |
| – | > 5 µM | < 70% | – | – | – | O=C(Nc1ccc(Oc2ccc3nccnc3c2)cc1F)c1cncc(C(F)(F)F)c1 [Compound C099, N-(2-fluoro-4-(quinoxalin-6-yloxy)phenyl)-5-(trifluoromethyl)nicotinamide] |
| – | > 5 µM | < 70% | – | – | – | O=C(Nc1ccc(Oc2ccc3nccnc3c2)cc1F)c1ccnc(C(F)(F)F)c1 [Compound C100, N-(2-fluoro-4-(quinoxalin-6-yloxy)phenyl)-2-(trifluoromethyl)isonicotinamide] |
| – | < 1 µM | 70 to 89% | – | – | – | O=C(Nc1cccc(Cl)c1)Nc1ccc(Oc2ccc3nccnc3c2)c(F)c1 [Compound C101, 1-(3-chlorophenyl)-3-(3-fluoro-4-(quinoxalin-6-yloxy)phenyl)urea] |
| – | – | 70 to 89% | – | – | – | O=C(Nc1ccc(Cl)cc1)Nc1ccc(Oc2ccc3nccnc3c2)c(F)c1 [Compound C102, 1-(4-chlorophenyl)-3-(3-fluoro-4-(quinoxalin-6-yloxy)phenyl)urea] |
| – | – | – | > 5 µM | – | – | O=C(Nc1ccc(Oc2ccc3ncc(O)nc3c2)cc1)Nc1ccc(Cl)c(C(F)(F)F)c1 [Compound C103, 1-(4-chloro-3-(trifluoromethyl)phenyl)-3-(4-((3-hydroxyquinoxalin-6-yl)oxy)phenyl)urea] |
